Laboratory results from article PMC9739695, “Water-Soluble Salts Based on Benzofuroxan Derivatives—Synthesis and Biological Activity” (International Journal of Molecular Sciences, 2022).
Where two headings read alike, the source gives them in different places.

Experiments:
wheat seeds = assay: Pre-sowing seed treatment, sowing qualities of wheat seeds; format: in vivo; settings: for germination energy: control 82; for laboratory germination: control 85.7
Description: (§1) When evaluating the effectiveness of treatment of wheat, alfalfa, barley, rice, and sorghum seeds as fungicidal and bactericidal agents with preparation compounds at concentrations of 10, 20, and 40 mmol, their effect on the suppression of seed infection was evaluated.
(§2) […] The sowing qualities were evaluated (germination energy for 3–4 days, laboratory germination for 7–8 days) according to GOST 12038-84 [60]. Sowing qualities of seeds were determined in wet chambers. According to the sample, 50 seeds were taken in 4-fold repetition.

alfalfa seeds = assay: Pre-sowing seed treatment, sowing qualities of alfalfa seeds; format: in vivo; settings: control 76
Description: as §1, §2

[1] = test system: fungal microflora (mushrooms) on alfalfa seeds; assay: Growth of fungal microflora on treated alfalfa seeds; format: cell-based
Description: (§3) During phytopathological analyses of agricultural crops, the species composition of fungal and bacterial microflora was established. Laboratory studies were carried out on two nutrient media potato-agar (ingredients: potatoes—200 g; agar-agar—20 g; distilled water—1000 mL.) and potato-dextrose agar (ingredients: potatoes—200 g;dextrose—20 g; agar-agar—20 g; distilled water—1000 mL), according to the guidelines.
When evaluating the effectiveness of treatment of wheat, alfalfa, barley, rice, and sorghum seeds as […], their effect on the suppression of seed infection was evaluated.

barley seeds = assay: Pre-sowing seed treatment, sowing qualities of barley seeds; format: in vivo; settings: control 95.2
Description: as §1, §2

[2] = test system: bacterial microflora on barley seeds; assay: Growth of bacterial microflora on treated barley seeds; format: cell-based
Description: as §3, §1

rice seeds = assay: Pre-sowing seed treatment, sowing qualities of rice seeds; format: in vivo; settings: for germination energy: control 71.4; for laboratory germination: control 95.2
Description: as §1, §2

[3] = test system: bacterial microflora on rice seeds; assay: Growth of bacterial microflora on treated rice seeds; format: cell-based
Description: as §3, §1

sorghum seeds = assay: Pre-sowing seed treatment, sowing qualities of sorghum seeds; format: in vivo; settings: for germination energy: control 52.3; for laboratory germination: control 57
Description: as §1, §2

SH-SY5Y (neuroblastoma) = assay: Cell viability, MTT test; format: cell-based, Human; settings: Homo sapiens, SH-SY5Y, test range 0.1 to 100 μM, read-out: IC50 (concentration causing 50% inhibition of cell population growth)
Description: (§4) In this work, the cytotoxic potential of the water-soluble salts based on benzofuroxan was determined by the effect of compounds on the survival of the cell tumor origin cultures (SH-SY5Y, Hep2, A549, HeLa) using the MTT test. To understand how the synthesized compounds can influence the healthy microenvironment in the body, the effect of substances on the viability of a normal Hek 293 cell culture was additionally evaluated.
(§5) Human cell cultures of tumor origin—SH-SY5Y (neuroblastoma), HeLa (cervical tumor), Hep-2 (larynx carcinoma), A549 (adenocarcinomic human alveolar basal epithelial cells)—and normal cell line Hek 293 (human embryonic kidneys), provided by the Laboratory of Tumor Cell Genetics of the Scientific Research Institute of Carcinogenesis, N.N. Blokhin National Medical Research Center of Oncology, as well as the Institute of Cytology of the Russian Academy of Sciences, were grown in a nutrient medium DMEM (PanEco, Moscow, Russia) and MEM (PanEco, Moscow, Russia), containing fetal bovine serum (10% by volume) (ThermoFisher Scientific, Paisley, UK), Glutamax (2 mM) (Gibco, Scotland, UK), and penicillin-streptomycin (1% by volume) (PanEco, Moscow, Russia). The cultivation was carried out at 37 °C in a humidified CO2 atmosphere (5%).
(§6) Cell viability was determined by MTT test. Cells were seeded in a 96-well plate in the amount of 1 × 10^4 cells/200µLof complete nutrient medium and cultured at 37 °C in CO2 (5%). After 24 h of incubation, various concentrations of test compounds in the range from 0.1 to 100 μM, were added to the cell cultures, and then the cells were cultured under the same conditions for 24 and 72 h. For each concentration, the experiment was carried out in triplicate.
(§7) All compounds were dissolved in DMSO, then diluted with the medium to the required concentration. […] The DMSO was also added to the control wells in a volume of 1%. After the incubation time, MTT (3-(4,5-dimethylthiazol-2-yl)-2,5-diphenyltetrazolium bromide, 5 mg/mL) was added to each well and plates were additionally incubated for 2 h (until the characteristic color appeared).
(§8) Using a plate analyzer (Cytation3, BioTech Instruments Inc., Winooski, VT, USA), the optical density was determined at 530 nm. The concentration value causing 50% inhibition of cell population growth (IC50) was determined from dose-dependent curves.

[4] = test system: A549 (adenocarcinomic human alveolar basal epithelial cells); assay: Cell viability, MTT test; format: cell-based; settings: test range 0.1 to 100 μM, read-out: IC50 (concentration causing 50% inhibition of cell population growth)
Description: as §4, §5, §6, §7, §8

HeLa (cervical tumor) = assay: Cell viability, MTT test; format: cell-based; settings: Homo sapiens, test range 0.1 to 100 μM, read-out: IC50 (concentration causing 50% inhibition of cell population growth)
Description: as §4, §5, §6, §7, §8

Hep-2 (larynx carcinoma) = assay: Cell viability, MTT test; format: cell-based; settings: Homo sapiens, HEp-2, test range 0.1 to 100 μM, read-out: IC50 (concentration causing 50% inhibition of cell population growth)
Description: as §4, §5, §6, §7, §8

[5] = test system: Hek 293 (human embryonic kidneys); assay: Cell viability, MTT test, normal cell line; format: cell-based; settings: HEK293, Hek 293 normal cells, test range 0.1 to 100 μM, read-out: IC50 (concentration causing 50% inhibition of cell population growth)
Description: as §4, §5, §6, §7, §8

O=[N+]([O-])c1c(Cl)cc2c(no[n+]2[O-])c1NCCN1CCOCC1 [4d, 6-chloro-4-(2-(morpholino-4-ium)ethylamino)-5-nitrobenzo[c][1,2,5]oxadiazole 1-oxide chloride]
germination energy (wheat seeds; 10 mmol): 47.6%
laboratory germination (wheat seeds; 10 mmol): 47.6%
germination energy (wheat seeds; 20 mmol): 71.4%
laboratory germination (wheat seeds; 20 mmol): 71.4%
sowing qualities of seeds compared with control (wheat seeds; 40 mmol): higher than in the case of controls
germination energy (wheat seeds; 40 mmol): 98%
laboratory germination (wheat seeds; 40 mmol): 98.5%
germination energy (alfalfa seeds; 10 mmol): 43.3%
laboratory germination (alfalfa seeds; 10 mmol): 50%
germination energy (alfalfa seeds; 20 mmol): 63.3%
laboratory germination (alfalfa seeds; 20 mmol): 73.3%
germination energy (alfalfa seeds; 40 mmol): 78%
laboratory germination (alfalfa seeds; 40 mmol): 80.5%
effect on fungal microflora ([1]; 10 mmol): positive effect on the suppression of fungal microflora
effect on fungal microflora ([1]; 20 mmol): positive effect on the suppression of fungal microflora
germination energy (barley seeds; 10 mmol): 71.4%
laboratory germination (barley seeds; 10 mmol): 71.4%
germination energy (barley seeds; 20 mmol): 66.6%
laboratory germination (barley seeds; 20 mmol): 66.6%
germination energy (barley seeds; 40 mmol): 95%
laboratory germination (barley seeds; 40 mmol): 98.5%
effect on bacterial microflora ([2]; 10 mmol): slight suppression of the bacterial microflora
effect on bacterial microflora ([2]; 40 mmol): slight suppression of the bacterial microflora
germination energy (rice seeds; 10 mmol): 52.3%
laboratory germination (rice seeds; 10 mmol): 52.3%
germination energy (rice seeds; 20 mmol): 47.6%
laboratory germination (rice seeds; 20 mmol): 95.2%
sowing qualities of seeds compared with control (rice seeds; 40 mmol): better results than the control
germination energy (rice seeds; 40 mmol): 99%
laboratory germination (rice seeds; 40 mmol): 99%
effect on bacterial microflora ([3]; 10 mmol): positive effect on the suppression of bacterial microflora
effect on bacterial microflora ([3]; 20 mmol): positive effect on the suppression of bacterial microflora
germination energy (sorghum seeds; 10 mmol): 33.3%
laboratory germination (sorghum seeds; 10 mmol): 40%
sowing qualities of seeds compared with control (sorghum seeds; 20 mmol): higher than in the control
germination energy (sorghum seeds; 20 mmol): 76.1%
laboratory germination (sorghum seeds; 20 mmol): 80.9%
germination energy (sorghum seeds; 40 mmol): 58.5%
laboratory germination (sorghum seeds; 40 mmol): 61.5%
IC50 (SH-SY5Y (neuroblastoma); incubation 24 h): 24.3 ± 1.91 µM
IC50 (SH-SY5Y (neuroblastoma); incubation 72 h): 22.8 ± 1.9 µM
IC50 ([4]; A549, incubation 24 h): > 100 µM
IC50 ([4]; A549, incubation 72 h): 98.21 ± 0.1 µM
IC50 (HeLa (cervical tumor); incubation 24 h): 40.5 ± 1.9 µM
IC50 (HeLa (cervical tumor); incubation 72 h): 35.47 ± 0.12 µM
IC50 (Hep-2 (larynx carcinoma); Hep2, incubation 24 h): 91.3 ± 1.4 µM
IC50 (Hep-2 (larynx carcinoma); Hep2, incubation 72 h): 89.9 ± 3.12 µM
IC50 ([5]; incubation 24 h): 40.8 ± 2.84 µM
IC50 ([5]; incubation 72 h): 28.1 ± 0.93 µM
